Results from ChEMBL document CHEMBL1201862, “PubChem BioAssay data set” (2004).
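1) Cells in 96-well plates. 2) Compound, 48 h, 5 concentrations. 3) Linear interpolation between surrounding doses. 4) Unreached endpoint = highest concentration. GI50 marks 50% less growth.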 Calls of active or inactive are those of the source. No stated cut-off is given here; in the data, active = GI50 up to about 1.1 µM and inactive = higher.

Legend:
Test in all cases: NCI-60 cell line screen, 48 h
T47D = tested on: T47D
SF-268 = tested on: SF-268
NCI-H226 = tested on: NCI-H226
LOX IMVI = tested on: LOX IMVI
HCT-15 = tested on: HCT-15
M14 = tested on: M14
UACC-62 = tested on: UACC-62
Malme-3M = tested on: Malme-3M
MDA-MB-435 = tested on: MDA-MB-435
HT-29 = tested on: HT-29
NCI/ADR-RES = tested on: NCI/ADR-RES
KM12 = tested on: KM12
U-251 = tested on: U-251
SF-295 = tested on: SF-295
ACHN = tested on: ACHN
PC-3 = tested on: PC-3
SNB-75 = tested on: SNB-75
EKVX = tested on: EKVX
MDA-MB-231 = tested on: MDA-MB-231
BT-549 = tested on: BT-549
MCF7 = tested on: MCF7
CAKI-1 = tested on: CAKI-1
OVCAR-8 = tested on: OVCAR-8
DU-145 = tested on: DU-145
MOLT-4 = tested on: MOLT-4
OVCAR-4 = tested on: OVCAR-4
SK-MEL-28 = tested on: SK-MEL-28
SK-MEL-2 = tested on: SK-MEL-2
HOP-92 = tested on: HOP-92
SW-620 = tested on: SW-620
UACC-257 = tested on: UACC-257
Hs-578T = tested on: Hs-578T
786-0 = tested on: 786-0
UO-31 = tested on: UO-31
HCT-116 = tested on: HCT-116
RPMI-8226 = tested on: RPMI-8226
SK-MEL-5 = tested on: SK-MEL-5
SK-OV-3 = tested on: SK-OV-3
TK-10 = tested on: TK-10
COLO 205 = tested on: COLO 205
HOP-62 = tested on: HOP-62
NCI-H460 = tested on: NCI-H460
IGROV-1 = tested on: IGROV-1
HCC 2998 = tested on: HCC 2998
SN12C = tested on: SN12C
OVCAR-3 = tested on: OVCAR-3
SR = tested on: SR
A549 = tested on: A549
OVCAR-5 = tested on: OVCAR-5
SNB-19 = tested on: SNB-19
RXF 393 = tested on: RXF 393
NCI-H23 = tested on: NCI-H23
NCI-H522 = tested on: NCI-H522
HL-60 = tested on: HL-60
CCRF-CEM = tested on: CCRF-CEM
K562 = tested on: K562

Cc1ccc(S(=O)(=O)ON2C(=O)c3cccc4cc([N+](=O)[O-])cc(c34)C2=O)cc1
GI50 (T47D): 51.6 µM (inactive) | GI50 (SF-268): 79.3 µM (inactive) | GI50 (NCI-H226): 54.8 µM (inactive) | GI50 (LOX IMVI): 32 µM (inactive) | GI50 (HCT-15): 71 µM | GI50 (M14): > 100 µM (inactive) | GI50 (UACC-62): 49.9 µM (inactive) | GI50 (Malme-3M): 44.2 µM (inactive) | GI50 (MDA-MB-435): 40.3 µM (inactive) | GI50 (HT-29): 28.6 µM (inactive) | GI50 (NCI/ADR-RES): > 100 µM (inactive) | GI50 (KM12): 32.6 µM (inactive) | GI50 (U-251): > 100 µM (inactive) | GI50 (SF-295): > 100 µM (inactive) | GI50 (ACHN): 62.1 µM (inactive) | GI50 (PC-3): > 100 µM (inactive) | GI50 (SNB-75): 41.9 µM (inactive) | GI50 (EKVX): > 100 µM (inactive) | GI50 (MDA-MB-231): 56.2 µM (inactive) | GI50 (BT-549): 27 µM (inactive) | GI50 (MCF7): 33.7 µM (inactive) | GI50 (CAKI-1): 55.8 µM (inactive) | GI50 (OVCAR-8): > 100 µM (inactive) | GI50 (DU-145): 89.1 µM (inactive) | GI50 (MOLT-4): 28.6 µM (inactive) | GI50 (OVCAR-4): 93.1 µM (inactive) | GI50 (SK-MEL-28): > 100 µM (inactive) | GI50 (SK-MEL-2): 84.5 µM (inactive) | GI50 (HOP-92): 50.5 µM (inactive) | GI50 (SW-620): 66.1 µM (inactive) | GI50 (UACC-257): 66.2 µM (inactive) | GI50 (Hs-578T): 68.1 µM (inactive) | GI50 (786-0): 47.5 µM (inactive) | GI50 (UO-31): 42.1 µM (inactive) | GI50 (HCT-116): 45.3 µM (inactive) | GI50 (RPMI-8226): > 100 µM (inactive) | GI50 (SK-MEL-5): 69.3 µM (inactive) | GI50 (SK-OV-3): 38.9 µM (inactive) | GI50 (TK-10): 42.9 µM (inactive) | GI50 (COLO 205): 81.5 µM (inactive) | GI50 (HOP-62): > 100 µM (inactive) | GI50 (NCI-H460): 19.6 µM (inactive) | GI50 (IGROV-1): 40.6 µM (inactive) | GI50 (HCC 2998): 23.8 µM (inactive) | GI50 (SN12C): 81.3 µM (inactive) | GI50 (OVCAR-3): 35.3 µM (inactive) | GI50 (SR): 26.7 µM (inactive) | GI50 (A549): > 100 µM (inactive) | GI50 (OVCAR-5): > 100 µM (inactive) | GI50 (SNB-19): 57.8 µM (inactive) | GI50 (RXF 393): 44.3 µM (inactive) | GI50 (NCI-H23): > 100 µM (inactive) | GI50 (NCI-H522): 56.2 µM (inactive)

Cc1ccc(Nc2nc(O)c3[nH]cnc3n2)cc1CO
GI50 (T47D): 14 µM (inactive) | GI50 (SF-268): 20.7 µM (inactive) | GI50 (NCI-H226): 17.1 µM (inactive) | GI50 (LOX IMVI): 19.9 µM (inactive) | GI50 (HCT-15): 15.6 µM | GI50 (M14): 12.8 µM (inactive) | GI50 (UACC-62): 13 µM (inactive) | GI50 (Malme-3M): 16.5 µM (inactive) | GI50 (MDA-MB-435): 15.8 µM (inactive) | GI50 (HT-29): 8.87 µM (inactive) | GI50 (NCI/ADR-RES): 15.4 µM (inactive) | GI50 (KM12): 8.81 µM (inactive) | GI50 (SF-295): 15.9 µM (inactive) | GI50 (ACHN): 16 µM (inactive) | GI50 (PC-3): 12.8 µM (inactive) | GI50 (SNB-75): 14.7 µM (inactive) | GI50 (EKVX): 14.8 µM (inactive) | GI50 (MDA-MB-231): 12.1 µM (inactive) | GI50 (BT-549): 14.9 µM (inactive) | GI50 (MCF7): 16.6 µM (inactive) | GI50 (CAKI-1): 15.2 µM (inactive) | GI50 (OVCAR-8): 16.6 µM (inactive) | GI50 (DU-145): 19.5 µM (inactive) | GI50 (MOLT-4): 15.5 µM (inactive) | GI50 (OVCAR-4): 17.1 µM (inactive) | GI50 (SK-MEL-28): 17.8 µM (inactive) | GI50 (SK-MEL-2): 16.6 µM (inactive) | GI50 (HOP-92): 8.79 µM (inactive) | GI50 (SW-620): 17.5 µM (inactive) | GI50 (UACC-257): 17.3 µM (inactive) | GI50 (Hs-578T): 21.2 µM (inactive) | GI50 (786-0): 15.7 µM (inactive) | GI50 (UO-31): 16 µM (inactive) | GI50 (HCT-116): 12.1 µM (inactive) | GI50 (RPMI-8226): 10.7 µM (inactive) | GI50 (SK-MEL-5): 16.5 µM (inactive) | GI50 (SK-OV-3): 13.5 µM (inactive) | GI50 (TK-10): 18 µM (inactive) | GI50 (COLO 205): 14.6 µM (inactive) | GI50 (NCI-H460): 16.5 µM (inactive) | GI50 (IGROV-1): 14.9 µM (inactive) | GI50 (HL-60): 1.7 µM (inactive) | GI50 (HCC 2998): 15.5 µM (inactive) | GI50 (OVCAR-3): 15.7 µM (inactive) | GI50 (SR): 14 µM (inactive) | GI50 (A549): 3 µM (inactive) | GI50 (OVCAR-5): 18.9 µM (inactive) | GI50 (SNB-19): 12.2 µM (inactive) | GI50 (RXF 393): 16.3 µM (inactive) | GI50 (NCI-H23): 17.7 µM (inactive) | GI50 (NCI-H522): 11.6 µM (inactive) | GI50 (CCRF-CEM): 16.1 µM (inactive) | GI50 (K562): 15.9 µM (inactive)
